Test results reported in article PMC10703884, “Targeting the COMMD4–H2B protein complex in lung cancer” (British Journal of Cancer, 2023).
Entries after “also recorded” stand apart in the source; their conditions may differ. No end group written: not given here.

How the values were obtained:
[1] = test system: HBEC3-KT cells; experiment: Mitotic catastrophe (emerin and phalloidin staining), HBEC3-KT cells; type: cell-based, Human; settings: 100 cells counted
Description: (§1) For siRNA transfections, cells were transfected with negative control or COMMD4 siRNA #2 (CCAUGUCCCUCUCAGCAGA[dT][dT] MISSION® siRNA, Sigma-Aldrich) using RNAiMax (Life Technologies) as previously described and samples were analysed 48 to 72 h post-transfection. The H2B wild-type (FLAG-H2BWT) and mutant (FLAG-H2BMUT1) expression constructs were generated with the 10-amino acid peptide and the corresponding mutant cloned into the expression vector pCDNA3.1/(+)-N-DYK containing an N-terminal FLAG tag and a C-terminal nuclear localisation signal (AAKRVKLDS) (GenScript). […] Cells were mock-transfected, or transfected with FLAG-H2BWT/FLAG-H2BMUT1, or COMMD4-FLAG/A70K with FuGENE® HD (Promega) using the manufacturer’s protocol and analysed 24 h post-transfection.
(§2) NSCLC cells were grown in 96-well plates as above and stained with anti-emerin antibody and phalloidin. Mitotic catastrophe was scored as previous. A minimum of 100 cells for each experimental condition were assessed to determine the percentage of aberrant nuclei.
(§3) As previously determined, in this study, we used two markers to determine mitotic catastrophe: emerin staining of the nuclear envelope and phalloidin staining of the F-actin cytoskeleton. […] We subsequently measured apoptosis by staining for Annexin V and propidium iodide via flow cytometry in FLAG-H2B WT, FLAG-H2BMUT1 and mock-transfected control and NSCLC cells (Fig. 5c, d). […]

[2] = test system: HBEC3-KT cells; experiment: CellTiter-Glo 2.0 luminescent cell viability after IR, HBEC3-KT cells; type: cell-based, Human; settings: CellTiter-Glo 2.0, 48 h post-irradiation, three independent experiments
Description: (§4) H1299, CRL5889 and H460 cells were cultured in Roswell Park Memorial Institute (RPMI) 1640 medium (Life Technologies) containing 10% foetal bovine serum (Thermo Fisher Scientific). Human bronchial epithelial cells (HBEC3-KT) were maintained in keratinocyte serum-free medium supplemented with epidermal growth factor and bovine pituitary extract (Life Technologies). The histology features and origin of all cell lines used have been previously described. Cell lines were authenticated using STR profiling. Cells were grown in a humidified incubator at 37 °C/5% CO2 atmosphere. All cell lines were verified to be free of mycoplasma contamination.
(§5) Irradiations were done at room temperature using a ^137Cs source (Gammacell 40 Exactor [MDS Nordion]; dose rate 1.1 Gy/min). […]
(§6) For siRNA transfections, cells were transfected with negative control or COMMD4 siRNA #2 (CCAUGUCCCUCUCAGCAGA[dT][dT] MISSION® siRNA, Sigma-Aldrich) using RNAiMax (Life Technologies) as previously described and samples were analysed 48 to 72 h post-transfection. […] Cells were mock-transfected, or transfected with FLAG-H2BWT/FLAG-H2BMUT1, or COMMD4-FLAG/A70K with FuGENE® HD (Promega) using the manufacturer’s protocol and analysed 24 h post-transfection.
(§7) A CellTiter-Glo 2.0 Luminescent assay (Promega Corporation) was carried out as previously described. […] Luminescence was measured using a PHERAstar FSX detection system (BMG Labtech). […]

[3] = test system: HBEC3-KT cells; experiment: Annexin V-FITC / propidium iodide apoptosis, HBEC3-KT cells; type: cell-based, Human; settings: flow cytometry, three independent experiments
Description: as §1
(§8) The Annexin V-FITC apoptosis kit (United Bioresearch, ALX-850-020-K101, Enzo Life Sciences, Farmingdale, NY, USA) was used to measure viable and apoptotic cells, as previously described. […] CytExpert 2.0 software was used for data acquisition and analysed using the FlowJo v10 software.
(§9) Fig. 5 Induction of mitotic catastrophe and apoptosis in NSCLC cells. a Emerin and phalloidin staining respectively in three NSCLC and control HBEC3-KT cells. […] Asterix (*) denotes *P < 0.05 and ** P < 0.005 from 100 cells counted. […] The live cells were stained with Annexin V-FITC and propidium iodide and analysed by flow cytometer. […]

[4] = test system: H460, H1299 and CRL5889 NSCLC cells; experiment: CellTiter-Glo 2.0 luminescent cell viability after IR, NSCLC cells; type: cell-based; settings: CellTiter-Glo 2.0, 48 h post-irradiation, three independent experiments
Description: as §4, §5, §6, §7

[5] = test system: NSCLC cells; experiment: Mitotic catastrophe (emerin and phalloidin staining), NSCLC cells; type: cell-based; settings: 100 cells counted
Description: as §1, §2, §3

[6] = test system: GST-COMMD4; experiment: FLAG immunoprecipitation, FLAG-H2B constructs with COMMD4; type: binding; settings: FLAG-H2B immunoprecipitated from HEK293T cells, anti-FLAG M2 Dynabeads, 4 °C, immunoblot for GST-COMMD4 and FLAG
Description: For siRNA transfections, cells were transfected with negative control or COMMD4 siRNA #2 (CCAUGUCCCUCUCAGCAGA[dT][dT] MISSION® siRNA, Sigma-Aldrich) using RNAiMax (Life Technologies) as previously described and samples were analysed 48 to 72 h post-transfection. The H2B wild-type (FLAG-H2BWT) and mutant (FLAG-H2BMUT1) expression constructs were generated with the 10-amino acid peptide and the corresponding mutant cloned into the expression vector pCDNA3.1/(+)-N-DYK containing an N-terminal FLAG tag and a C-terminal nuclear localisation signal (AAKRVKLDS) (GenScript). A70K FLAG-COMMD4 expression construct was generated by mutating the corresponding COMMD4-FLAG construct to harbour an A70K mutation (GenScript). Cells were mock-transfected, or transfected with FLAG-H2BWT/FLAG-H2BMUT1, or COMMD4-FLAG/A70K with FuGENE® HD (Promega) using the manufacturer’s protocol and analysed 24 h post-transfection.
Co-immunoprecipitations were performed as previously summarised, using ice-cold NP40 buffer. Assays for co-immunoprecipitations were performed at 4 °C from HEK293T, transiently expressing the FLAG-H2B WT or MUT plasmid. Proteins were captured using anti-FLAG M2 Dynabeads (ThermoFisher) and washed three times in NP40 buffer prior to analysis. […]

[7] = test system: H460, H1299 and CRL5889 NSCLC cells; experiment: Annexin V-FITC / propidium iodide apoptosis, NSCLC cells; type: cell-based; settings: flow cytometry, three independent experiments
Description: as §1, §8, §9

binding of overexpressed FLAG-H2B construct to COMMD4 [6]: interacted with COMMD4
Substance: FLAG-H2BWT: 10-amino acid peptide cloned into expression vector containing an N-terminal FLAG tag and a C-terminal nuclear localisation signal ({FLAG}-SFVNDIFERIAAKRVKLDS)
aberrant nuclei / mitotic catastrophe [1]: also underwent mitotic catastrophe, but to a lesser extent than the NSCLC cell lines
sensitivity to ionising radiation (luminescent viability) [2]: not hypersensitive
induction of apoptosis [3]: no significant induction of apoptosis
sensitivity to ionising radiation (luminescent viability) [4]: hypersensitive to IR compared to FLAG-H2BMUT1 and mock-transfected cells
aberrant nuclei / mitotic catastrophe [5]: significantly more aberrant nuclei, indicative of mitotic catastrophe induction, relative to FLAG-H2BMUT1; also recorded: significantly more mitotic catastrophe than control cells
early and late apoptosis [7]: significantly increased early and late apoptosis compared to FLAG-H2BMUT1 and mock-transfected cells
